Row | SMILES | melting point [°C]
1 | O=c1ccc(S(=O)(=O)c2oc3ccccc3c2O)n[nH]1 [Example 16, 6-(3-Hydroxy-benzofuran-2-sulfonyl)-2H-pyridazin-3-one] | 186 to 189
2 | Cn1c(S(=O)(=O)c2ccc(=O)[nH]n2)cc2ccccc21 [Example 40, 6-(N-Methylindole-2-sulfonyl)-2H-pyridazin-3-one] | 233 to 235
3 | O=c1ccc(S(=O)(=O)c2[nH]c3ccccc3c2Cl)n[nH]1 [Example 36, 6-(3-Chloro-indole-2-sulfonyl)-2H-pyridazin-3-one] | 250
